According to PubChem BioAssay (NCI):
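In this assay, cells in 96-well plates receive the compound at five concentrations for 48 hours. Endpoints are linearly interpolated between the surrounding concentrations. GI50 = concentration required for 50% inhibition of growth. Definition used: TGI = concentration required for complete inhibition of growth.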

What was measured:
Test in all cases: growth of human tumour cells (NCI), 48 h
MOLT-4 leukemia = system: MOLT-4 leukemia
HS 578T breast = system: HS 578T breast
IGROV1 ovarian = system: IGROV1 ovarian
NCI-H23 lung = system: NCI-H23 lung
U251 CNS = system: U251 CNS
NCI/ADR-RES ovarian = system: NCI/ADR-RES ovarian
NCI-H522 lung = system: NCI-H522 lung
M14 melanoma = system: M14 melanoma
SK-MEL-2 melanoma = system: SK-MEL-2 melanoma
A498 renal = system: A498 renal

| SMILES | GI50 (MOLT-4 leukemia) [µM] | TGI (MOLT-4 leukemia) [µM] | GI50 (HS 578T breast) [µM] | TGI (HS 578T breast) [µM] | GI50 (IGROV1 ovarian) [µM] | TGI (IGROV1 ovarian) [µM] | GI50 (NCI-H23 lung) [µM] | TGI (NCI-H23 lung) [µM] | GI50 (U251 CNS) [µM] | TGI (U251 CNS) [µM] | GI50 (NCI/ADR-RES ovarian) [µM] | TGI (NCI/ADR-RES ovarian) [µM] | GI50 (NCI-H522 lung) [µM] | TGI (NCI-H522 lung) [µM] | GI50 (M14 melanoma) [µM] | TGI (M14 melanoma) [µM] | GI50 (SK-MEL-2 melanoma) [µM] | TGI (SK-MEL-2 melanoma) [µM] | GI50 (A498 renal) [µM] | TGI (A498 renal) [µM] |
| --- | --- | --- | --- | --- | --- | --- | --- | --- | --- | --- | --- | --- | --- | --- | --- | --- | --- | --- | --- | --- |
| CCc1ccc2c(c1)C(=O)c1c-2n(CCCN)c(=O)c2cc(OC)c(OC)cc12 | 1.75 | 3.52 | 2.07 | 3.78 | 1.76 | 3.36 | 1.81 | 3.3 | 1.69 | 3.11 | 1.68 | 3.22 | 1.59 | 3.38 | 1.8 | 3.37 | – | – | – | – |
| CCSC[C@@H]1C[C@](O)(c2ccccc2)[C@@H](c2ccccc2)O1 | 7.18 | > 23.7 | 50.9 | > 97.1 | 59.5 | > 100 | 79.9 | > 100 | 99.1 | > 100 | 77.8 | > 100 | 58.4 | > 100 | > 90.1 | > 100 | > 100 | > 100 | 69.9 | > 100 |
| CC(C)(O)C1COC2=C1C(=O)c1ccccc1C2=O (configuration not stated) | – | 71.2 | – | > 100 | – | > 100 | – | 38.8 | – | > 100 | – | 62.1 | – | > 100 | – | > 100 | – | 88.6 | – | > 100 |
| CCn1cc(C(=O)O)c(=O)c2cc(F)c(N3CCN(S(=O)(=O)c4ccc(Cl)cc4Cl)CC3)cc21 | 3.55 | > 100 | 2.53 | 7.66 | 2.33 | 5.08 | 2.33 | 5.97 | 3.3 | 14.7 | 3.28 | 28 | 1.81 | 3.73 | 3.24 | 10.8 | 2.75 | 5.8 | 3 | 30 |
| O=c1c(I)c[nH]cc1I | > 100 | > 100 | > 100 | > 100 | 98.3 | > 100 | > 100 | > 100 | > 100 | > 100 | > 100 | > 100 | > 100 | > 100 | > 100 | > 100 | > 100 | > 100 | > 100 | > 100 |
| Cc1cc(NC(=O)NCc2ccc(N3C(N)=NC(N)=NC3(C)C)cc2)ccc1S(=O)(=O)F | 2.01 | > 100 | > 48.7 | > 100 | 0.388 | > 100 | 4.29 | > 100 | 0.832 | > 100 | > 100 | > 100 | 6.1 | > 100 | 1.51 | > 100 | 45 | > 100 | > 46.4 | > 100 |
| Nc1nc(SCc2ccccc2CCl)c2[nH]cnc2n1 | 21.4 | > 100 | 18.3 | 97.2 | 14.5 | 47.9 | 15.7 | 36.5 | 13.1 | 27.3 | 20.9 | 67.7 | – | – | 17.8 | 52.8 | – | – | 11.7 | 25.8 |
| CCN(CC)CCOC(COc1cc(C)cc(C)c1)COc1cc(C)cc(C)c1 | 2.08 | 5.73 | 4.22 | 16.7 | – | – | 2.36 | 14.7 | 3.12 | 11.5 | 3.34 | 14.6 | 4.51 | 18.3 | 1.35 | 3.06 | 11.6 | 25.8 | – | – |
| C=C1OC2OC(C)C(NC(=O)OCC(Cl)(Cl)Cl)C(OC(C)=O)C2O1 (configuration not stated) | – | > 100 | – | > 100 | – | > 100 | – | > 100 | – | > 100 | – | > 100 | – | > 100 | – | > 100 | – | – | – | > 100 |
| CC[C@H](C)[C@H](NC(=O)[C@H]1CCCCN1C)C(=O)N(C)[C@H](CCc1nc(C(=O)N[C@@H](Cc2ccccc2)C[C@H](C)C(=O)O)cs1)C(C)C | 0.138 | > 25 | 0.123 | > 25 | 0.223 | > 25 | 0.565 | > 25 | 0.127 | > 25 | > 25 | > 25 | 0.0351 | 0.579 | – | – | 0.0789 | > 25 | 0.272 | > 25 |
| COc1ccc(-c2nsc3c2NC(=O)CC3c2ccsc2)cc1 (configuration not stated) | 0.514 | 24.1 | 0.269 | > 100 | 0.984 | > 100 | 0.375 | 73.8 | 0.299 | > 100 | 0.064 | 0.278 | 0.139 | 4.25 | 0.167 | 23.6 | – | – | 0.171 | 0.808 |
| CCCCCCCCCCCCCCCCCc1nc(Cl)nc(Cl)c1Cl | – | > 100 | – | > 100 | – | > 100 | – | > 100 | – | > 100 | – | > 100 | – | > 100 | – | > 100 | – | – | – | – |
| O=c1ccc(N=Nc2ccccc2)ccc1O | – | 25.1 | – | 35.3 | – | 34.6 | – | 31.5 | – | 20.2 | – | 29.6 | – | 56.3 | – | 28.5 | – | 47.5 | – | – |
| N[C@@H]1CCCN(c2c(Br)cnc3[nH]cc(NC(=O)C4CC4)c23)C1 | 0.279 | > 100 | 0.417 | 26.1 | 0.409 | > 100 | 0.234 | > 100 | 7.96 | > 100 | 0.393 | > 70.7 | 13 | > 100 | – | – | 0.492 | > 100 | 0.0412 | 0.182 |
| Nc1cccc(-c2cc(=O)c3cc4c(cc3[nH]2)OCO4)c1 | – | > 100 | – | 6.56 | – | – | – | 22.6 | – | 24.9 | – | 2.95 | – | 0.881 | – | > 79.6 | – | 5.72 | – | > 100 |
